From patent publication US20260256940A1, “MITOCHONDRIA AS A TARGETED DELIVERY PLATFORM” (cellvie AG, priority 2022, published 2026)

Test system: heart of a pig
Conditions: in vivo
Method: Five milliliters of mitochondria-ssDNA suspension (ssDNA is fluorescently labeled with FAM, and the ssDNA oligo sequence 5′ to 3′ is [sequence]) in conjugation buffer (at a concentration of 1 mg/mL) were directly injected into the heart of the pig. After two hours, the pig was sacrificed, and a small piece of heart tissue where the injection had occurred was cut. The tissue was fixed using formaldehyde, and a histology cut was performed. The tissue was stained with DAPI and rhodamine phalloidin (Thermo Fisher Scientific) to visualize cell nuclei and F-actin networks, respectively. The FAM signal represents the ssDNA signal. A control experiment was prepared by directly injecting naked ssDNA.
An in vivo experiment was conducted to understand the stability of the mitochondria-ssDNA complex inside a tissue or organ after injection. Using a syringe, either the mitochondria-ssDNA complex or naked ssDNA (control) were directly injected into the heart of a pig. Two hours post-injection, the tissue was processed and fluorescently stained using DAPI and rhodamine phalloidin to stain cell nuclei and F-actins, respectively. The samples were analyzed using a fluorescence microscope to visualize nuclei, actin and the FAM-labeled ssDNA.

With “naked ssDNA: FAM-labeled ssDNA, oligo sequence 5′ to 3′ GCAACAGTGAAGGAAAGCC, injected without mitochondria as control (FAM label, chemistry not fully specified; listed 3' to 5')” the “ssDNA signal in heart tissue” value was “No ssDNA signal was observed”.
